Laboratory results reported in US8609608B2, “Antimicrobial peptides” (C3 Jian, Inc., priority 2007, dated 2013).
Read-outs that look alike come from different tables or passages of the source. Where no end group is shown, it is not given here.

Assays:
[1] = tested on: clinical isolates of S. mutans; format: cell-based, Streptococcus mutans
Description: S. mutans clinical isolates UA140 (32), UA159 (1), T8 (33), ATCC 25175, GS5 (Kuramitsu and Ingersoll (1977) Infect Immun., 17: 330-337), and all gram-positive strains listed below (see Table 9) were grown under anaerobic conditions in brain heart infusion or Todd-Hewitt (TH) broth (Difco) overnight at 37° C. prior to use (Eckert et al. (2006) Antimicrob. Agents Chemother. 50: 3651-3657). Veillonella atypica PK1910 was grown in Veillonella medium (Egland et al. (2004) Proc. Natl. Acad. Sci., USA, 101: 16917-16922). All strains were grown in an anaerobic atmosphere of 80% N2, 10% CO2, and 10% H2.
Antibacterial growth inhibition assays were performed using sterile 96-well plates in a final volume of 100 μl, TH or Veillonella medium as described previously (Qi et al. (2005) FEMS Microbial Lett. 251: 321-326). Briefly, bacterial cells were grown overnight to an optical density at 600 nm of 0.75 to 0.8 (corresponding to 1×10^8 CFU/ml) and then diluted to 1×10^5 CFU/ml in broth and aliquoted onto plates. An appropriate volume of peptide stock solution (5 to 20 mg/ml, in water or methanol, depending on solubility) was then added to the first column of the plate to give 500 μg/ml or 512 μg/ml, followed by serial 1:2 dilutions across the plate to give wells containing peptides ranging from 500 to 1.95 μg/ml or 512 to 2 μg/ml. Methanol alone was also added to control for the effects of the solvent. The plates were then incubated at 37° C. under anaerobic conditions for 16 to 20 h without shaking, and the MIC was determined as the concentration of peptide present in the last clear well after visual inspection. Up to 5% (vol/vol) methanol was found not to be antimicrobial (data not shown). MICs were determined in triplicate for all bacteria.

P. aeruginosa = test: MIC against P. aeruginosa; format: cell-based, Pseudomonas aeruginosa

Substance	MIC ([1]; clinical isolates of) [µg/mL]	further results
RILKELKNLFK-OH [Peptide B-40, RILKELKNLFK]	>250	
LHIHAHFHVHIHLHF [Peptide S3L8-8, LHIHAHFHVHIHLHF]		MIC P. aeruginosa (P. aeruginosa): >125 µg/mL; MIC S. aureus (S. aureus): >125 µg/mL; MIC E. faecalis (E. faecalis): >125 µg/mL; MIC L. casei (L. casei): >62.5 µg/mL
KLKKLLKRWRRWWR-OH [α-10, KLKKLLKRWRRWWR]	8	
VGKCVKLLY-NH2 [Peptide S6L1-4, VGKCVKLLY*]		MIC S. mutans ([1]; clinical isolates of): 125 µg/mL; MIC P. aeruginosa (P. aeruginosa): 250 µg/mL; MIC S. aureus (S. aureus; Killing Peptide Library #7): 500 µg/mL
AKRLLKVLKRF-NH2 [Peptide B-62, AKRLLKVLKRF*]	16 to 32	
RRRRWWK [Peptide 3C-1, RRRRWWK]	125	
KLVKLVFLY-NH2 [Peptide S6L1-6, KLVKLVFLY*]		MIC S. mutans ([1]; clinical isolates of): 125 µg/mL; MIC P. aeruginosa (P. aeruginosa): >500 µg/mL; MIC S. aureus (S. aureus; Killing Peptide Library #7): >500 µg/mL
RWRWRWR [Peptide 1C-4, RWRWRWR]	32	
IKTLLHFFQRF-NH2 [Peptide B-54, IKTLLHFFQRF*]	32 to 62.5	activity against S. mutans by MIC, in words [1]: active but to a lesser degree than B-33 or B-34
RFRHFQERY-NH2 [Peptide S6L1-8, RFRHFQERY*]		MIC S. mutans ([1]; clinical isolates of): 64 µg/mL; MIC P. aeruginosa (P. aeruginosa): >500 µg/mL; MIC S. aureus (S. aureus; Killing Peptide Library #7): 125 µg/mL
RALKRIKHVLK [Peptide B-64, RALKRIKHVLK]	>125	
KLAENVKEILR-OH [Peptide B-47, KLAENVKEILR]	>250	
RVLQEIKQILK-OH [Peptide B-44, RVLQEIKQILK]	>250	
KLKKLLKKLKKLLK [α-5, KLKKLLKKLKKLLK]	8	
LKQFVKFIHRF-NH2 [Peptide B-57, LKQFVKFIHRF*]	24	activity against S. mutans by MIC, in words [1]: active but to a lesser degree than B-33 or B-34
VKNLAELVHRF-NH2 [Peptide B-45, VKNLAELVHRF*]	>250	
RWRKRWK [Peptide 4C-4, RWRKRWK]	125 to 500	
RRRRWWW [Peptide 1C-1, RRRRWWW]	16	
RRRWWWK [Peptide 3C-3, RRRWWWK]	31.25 to 125	
FKTFLKWLHRF-NH2 [Peptide B-37, FKTFLKWLHRF*]	24	activity against S. mutans by MIC, in words [1]: active but to a lesser degree than B-33 or B-34
KFVKLILAY-NH2 [Peptide S6L1-5, KFVKLI LAY*]		activity against S. mutans by MIC, in words [1]: moderate activity; MIC S. mutans ([1]; clinical isolates of): 32 µg/mL; MIC P. aeruginosa (P. aeruginosa): 92 µg/mL; MIC S. aureus (S. aureus; Killing Peptide Library #7): >500 µg/mL

Substance	MIC ([1]; clinical isolates of) [µg/mL]	further results
VFLHRHVIKHKLVF [Peptide S3L8-13, VFLHRHVIKHKLVF]		MIC P. aeruginosa (P. aeruginosa): >125 µg/mL; MIC S. aureus (S. aureus): >125 µg/mL; MIC E. faecalis (E. faecalis): 125 µg/mL; MIC L. casei (L. casei): >62.5 µg/mL
LQLLKQLLKLLKQF-NH2 [α-7, LQLLKQLLKLLKQF*]	8	
FKTFLQWLHRF-NH2 [Peptide B-53, FKTFLQWLHRF*]	16 to 64	activity against S. mutans by MIC, in words [1]: active but to a lesser degree than B-33 or B-34
IKQLLHFFQRFGGGRWRRLLKKLHHLLH-NH2 [FBα-13, IKQLLHFFQRF-GGG-RWRRLLKKLHHLLH*]		MIC (fusion library peptides) ([1]; clinical isolates of): 16 µg/mL
RLLKRFKHLFK-OH [Peptide B-36, RLLKRFKHLFK]	31.25 to 125	
LKQLKAGIY-NH2 [Peptide S6L1-3, LKQLKAGIY*]		MIC S. mutans ([1]; clinical isolates of): >500 µg/mL; MIC P. aeruginosa (P. aeruginosa): 250 µg/mL; MIC S. aureus (S. aureus; Killing Peptide Library #7): >500 µg/mL
FHYFWHWFHRF-NH2 [Peptide B-49, FHYFWHWFHRF*]	125	activity against S. mutans by MIC, in words [1]: weakly active
VKTLLHIFQRF-NH2 [Peptide B-42, VKTLLHIFQRF*]	31.25 to 125	
KLVQQLKNIFR-OH [Peptide B-59, KLVQQLKNIFR]	>125	
RRRKWWK [Peptide 4C-3, RRRKWWK]	125	
RRRFWWR [Peptide 2C-1, RRRFWWR]	31.25 to 125	
FHIKFRVHLKVRFHF [Peptide S3L8-6, FHIKFRVHLKVRFHF]		MIC P. aeruginosa (P. aeruginosa): >125 µg/mL; MIC S. aureus (S. aureus): >125 µg/mL; MIC E. faecalis (E. faecalis): >125 µg/mL; MIC L. casei (L. casei): 8 µg/mL
VKQLLKIFNRF-NH2 [Peptide B-58, VKQLLKIFNRF*]	32 to 62.5	activity against S. mutans by MIC, in words [1]: active but to a lesser degree than B-33 or B-34
RRWWRRK [Peptide 3C-2, RRWWRRK]	125	
RRRKWWK [Peptide 4C-1, RRRKWWK]	250	
LKQKLKILF-NH2 [Peptide S6L1-2, LKQKLK1LF*]		MIC S. mutans ([1]; Killing Peptide Library #7): 125 µg/mL; MIC P. aeruginosa (P. aeruginosa; Killing Peptide Library #7): >500 µg/mL; MIC S. aureus (S. aureus; Killing Peptide Library #7): >500 µg/mL
KLKKLLKHLHHLLH-NH2 [α-12, KLKKLLKHLHHLLH*]	8	
KLLQTFNQIFR-OH [Peptide B-55, KLLQTFNQIFR]	>125	
ATHLLHALQRF-NH2 [Peptide B-46, ATHLLHALQRF*]	>250	
VKKLAKLVRRF-NH2 [Peptide B-61, VKKLAKLVRRF*]	16 to 32	
YLLTEFQHLFK-OH [Peptide B-52, YLLTEFQHLFK]	>125	

Substance	MIC ([1]; clinical isolates of) [µg/mL]	further results
KLVEQLKEIFR-OH [Peptide B-43, KLVEQLKEIFR]	>250	
FKKFWKWFRRFGGGRWRRLLKKLHHLLH-NH2 [FBα-12, FKKFWKWFRRF-GGG-RWRRLLKKLHHLLH*]		MIC (fusion library peptides) ([1]; clinical isolates of): 16 µg/mL
KLLQTFKQIFR-OH [Peptide B-39, KLLQTFKQIFR]	>250	
RRWWRRF-NH2 [Peptide 2C-2, RRWWRRF*]	12 to 24	
IKVFAKQKY-NH2 [Peptide S6L1-7, IKVFAKQKY*]		MIC S. mutans ([1]; clinical isolates of): >500 µg/mL; MIC P. aeruginosa (P. aeruginosa): >500 µg/mL; MIC S. aureus (S. aureus; Killing Peptide Library #7): >500 µg/mL
RRWWRRW [Peptide 1C-2, RRWWRRW]	16	
RVLNQVKQILK [Peptide B-60, RVLNQVKQILK]	>125	
RRRWWWR [Peptide 1C-3, RRRWWWR]	32	
KLFKRWKHLFR-OH [Peptide B-35, KLFKRWKHLFR]	31.25 to 125	
LYHFLHWFQRF-NH2 [Peptide B-50, LYHFLHWFQRF*]	125	activity against S. mutans by MIC, in words [1]: weakly active
KLAQKVKRVLR [Peptide B-63, KLAQKVKRVLR]	>125	
AQAAKQAAKAAKQF-NH2 [α-8, AQAAKQAAKAAKQF*]		activity against S. mutans by MIC, in words [1]: inactive; MIC ([1]; MIC range or value from all S. mutans isolates tested, binary, alpha-helix and RW libraries): >125 µg/mL
AQAAHQAAHAAHQF-NH2 [α-4, AQAAHQAAHAAHQF*]	>125	activity against S. mutans by MIC, in words [1]: inactive
RWRRWWRHFHHFFH-NH2 [α-9, RWRRWWRHFHHFFH*]	8	
YLFQTWQHLFR-OH [Peptide B-51, YLFQTWQHLFR]	>125	
LKQFVHFIHRF-NH2 [Peptide B-41, LKQFVHFIHRF*]	32	activity against S. mutans by MIC, in words [1]: active but to a lesser degree than B-33 or B-34
RWRWRWK [Peptide 3C-4, RWRWRWK]	32	
RRWKRRK [Peptide 4C-2, RRWKRRK]	500	
RALHEAKEALK-OH [Peptide B-48, RALHEAKEALK]	>250	
